Source: patent US7476380B2, “Methods for treating illnesses of the tracheo-bronchial tract, especially chronic obstructive pulmonary disease (COPD)” (GSE-Forschungszentrum fur Umwelt und Gesundheit GmbH, priority 2000, dated 2009)

Experiments:
[1] = system: metalloproteases; conditions: rat osteoblasts; Overall 1995; cited from earlier work
[2] = system: TIMP-1; experiment: TIMP-1 expression in blood monocytes (PBMCs); format: cell-based, human
Method: (§1) • RPMI 1640 (Biochrom # F1415, Berlin), L-glutamine 2 mM (Gibco # 25030-024), penicillin 200 U/ml, streptomycin 200 μg/ml (Gibco # 15140-114), non-essential amino acids (NEAA) 1-2x (Gibco # 11140-35), OPI supplement (contains oxalacetate, Na pyruvate and insulin) 10 ml per 1 liter (Sigma # O-5003). Following filtration through a Gabro ultrafilter U 2000 (Martinsried, Germany) to remove LPS addition of 10% FCS, LPS tested. • Costar low attachment 24 well plates # 3473 (Bodenheim, Germany) 1×10^6 BAL cells (=cells obtained by brocho-alveolar lavage containing alveolar macrophages in an amount of about 80%) or 1.5×10^6 PBMCs (=peripheral blood mononuclear cells isolated via LymphoPrep gradient (Nycomed, Norway)), respectively, in a volume of 1 ml were used per sample. Pretreat the 24 well low attachment cell culture plate according to the manufacturer's instructions. For this purpose, fill the respective wells with 1 ml of medium and incubate for 20 min at 37° C. in an incubator. Afterwards remove the medium and replace by cell suspension. Add the liposomes loaded with vitamin A in a final concentration of 5×10^−6 M. Prepare parallel samples with pure vitamin A and empty liposomes as controls. For the measurement of MMP-9 and TIMP-1 in the culture supernatant and for determination of mRNA expression incubate the cells in an incubator for three days at 37° C. […]

[3] = system: TMP-1; conditions: rat osteoblasts, depending on the dose; Overall 1995; cited from earlier work
[4] = system: TIMP-1; experiment: TIMP-1 in culture supernatant of alveolar macrophages (BAL cells), ELISA; format: cell-based; conditions: human alveolar macrophages; for TIMP-1 expression: 5 μM final, day 3 (day 4 the same), culture supernatant
Method: (§2) For this purpose, human alveolar macrophages (AMs) were obtained via bronchial lavage. The AMs were seeded into Mono Mac 6 medium+10% FCS onto a 24 well “low attachment” plate (Costar) using 1×10^6 cells in a volume of 1 ml per each sample. Additions of vitamin A liposomes or of the pure substances, respectively, were carried out. Cells for RT-PCR or culture supernatant for protein determinations by means of ELISA, respectively, were harvested from parallel samples each on day 1, day 3, and day 4. Specifically, the following samples were prepared: • β=control sample, AMs in medium only • Lipleer=empty liposomes • LipVitA=liposomes containing vitamin A (retinoic acid, Sigma R-2625) 5 μM final • VitA=pure vitamin A (retinoic acid, Sigma R-2625) 5 μM final • LipPalm=liposomes containing all-trans retinol palmitate (Sigma R-3375) 3 μM final • Palmitat=all-trans retinol palmitate (Sigma R-3375) 3 μM final
(§3) The culture supernatants were monitored for MMP-9 and TMP-1 content using commercial ELISA kits (Amersham Pharmacia). In each case the numerals refer to ng/ml culture supernatant based on 1×10^6 cells.
(§4) • RPMI 1640 (Biochrom # F1415, Berlin), L-glutamine 2 mM (Gibco # 25030-024), penicillin 200 U/ml, streptomycin 200 μg/ml (Gibco # 15140-114), non-essential amino acids (NEAA) 1-2x (Gibco # 11140-35), OPI supplement (contains oxalacetate, Na pyruvate and insulin) 10 ml per 1 liter (Sigma # O-5003). Following filtration through a Gabro ultrafilter U 2000 (Martinsried, Germany) to remove LPS addition of 10% FCS, LPS tested. • Costar low attachment 24 well plates # 3473 (Bodenheim, Germany) 1×10^6 BAL cells (=cells obtained by brocho-alveolar lavage containing alveolar macrophages in an amount of about 80%) or 1.5×10^6 PBMCs (=peripheral blood mononuclear cells isolated via LymphoPrep gradient (Nycomed, Norway)), respectively, in a volume of 1 ml were used per sample. Pretreat the 24 well low attachment cell culture plate according to the manufacturer's instructions. For this purpose, fill the respective wells with 1 ml of medium and incubate for 20 min at 37° C. in an incubator. Afterwards remove the medium and replace by cell suspension. Add the liposomes loaded with vitamin A in a final concentration of 5×10^−6 M. Prepare parallel samples with pure vitamin A and empty liposomes as controls. For the measurement of MMP-9 and TIMP-1 in the culture supernatant and for determination of mRNA expression incubate the cells in an incubator for three days at 37° C. Afterwards resuspend the cells carefully and first remove 2×10^4 cells per PCR lysate for lysis in 200 μl of RNAclean (AGS, Heidelberg, Germany)in an Eppendorf reaction vial. Store these PCR lysates at −20° C. until further use. Transfer the remaining cell suspension into an Eppendorf vial and centrifuge for 5 min at 14,000×g. Remove the supernatant, transfer into a fresh vial and store at −80° C. until measurement. Summary of the Samples: • 1. BAL cells or PBMCs, respectively without any addition • 2. BAL cells or PBMCs, respectively + empty liposomes • 3. BAL cells or PBMCs, respectively + liposomes vitA 5 μM final • 4. BAL cells or PBMCs, respectively pure vitA 5 μM final Determinations of MMP-9 and TIMP-1 on the Protein Level by ELISA
(§5) For the measurement of MMP-9 and TIMP-1 in cell culture supernatants commercially available ELISA kits of Amersham Pharmacia Biotech company (Freiburg, Germany) are used. […]

[5] = system: enzymes having gelatinase activities; conditions: Park and Kim, Mol. Cells 1999; cited from earlier work
[6] = system: MMP-9; experiment: MMP-9 expression in blood monocytes (PBMCs); format: cell-based, human
Method: as §1

[7] = system: MMP-9; experiment: MMP-9 in culture supernatant of alveolar macrophages (BAL cells), ELISA; format: cell-based; conditions: human alveolar macrophages; for MMP-9 expression: 5 μM final, day 3 (day 4 the same), culture supernatant
Method: as §2, §3, §4, §5

[8] = system: TIMP; conditions: Heath et al. 1990; cited from earlier work
[9] = system: MMP-9/TIMP-1; experiment: MMP-9/TIMP-1 ratio of alveolar macrophages (BAL cells); format: cell-based, human; conditions: day 3
Text: There is increasing evidence that disorders in the protease/protease inhibitor equilibrium are the cause underlying the pathogenesis of chronic lung diseases. […] This is particularly true for patients suffering from chronic obstructive bronchitis (COPD). Among the MMPs in COPD, it is particularly the secretion of MMP-9 metalloprotease which is increased in the airways and alveoles and can no longer be completely neutralized by its natural antagonist TIMP-1 (tissue inhibitor of metalloprotease). […] An important criterion to determine the degree of the disturbance of the protease/antiprotease equilibrium is the proteinase-to-inhibitor ratio: MMP-9/TIMP-1.
For this purpose, human alveolar macrophages (AMs) were obtained via bronchial lavage. The AMs were seeded into Mono Mac 6 medium+10% FCS onto a 24 well “low attachment” plate (Costar) using 1×10^6 cells in a volume of 1 ml per each sample. Additions of vitamin A liposomes or of the pure substances, respectively, were carried out. Cells for RT-PCR or culture supernatant for protein determinations by means of ELISA, respectively, were harvested from parallel samples each on day 1, day 3, and day 4. […]
The culture supernatants were monitored for MMP-9 and TMP-1 content using commercial ELISA kits (Amersham Pharmacia). […]

[10] = day 1 following vitamin A addition

Compound | expression of metalloproteases [1] | TIMP-1 inhibitor expression [2] | mRNA levels of TMP-1 [3] | TIMP-1 expression [4] | TIMP-1 expression ([4]; listed as retinoic acid) | activity of enzymes having gelatinase activities (metalloproteases) [5] | expression of MMP-9 metalloprotease [6] | MMP-9 expression [7] | MMP-9 expression ([7]; listed as retinoic acid) | TIMP levels [8] | effect on the MMP-9/TIMP-1 ratio [9] | TIMP-1 on the protein level, day 1 [4, 10] | MMP-9 on the protein level, day 1 [7, 10]
CC1=C(/C=C/C(C)=C/C=C/C(C)=C/C(=O)O)C(C)(C)CCC1 [free vitamin A, all-trans retinoic acid] | increases | stimulation | clearly reduced | increase | stimulation | increased | clear inhibition | strongly reduced | clear inhibition |  |  |  | 
CC1=C(/C=C/C(C)=C/C=C/C(C)=C/CO)C(C)(C)CCC1 [retinol] |  | stimulation |  | stimulation |  |  | clear inhibition | clear inhibition |  | 0 |  |  | 
vitamin A |  |  |  | significantly stimulates |  |  |  | significantly inhibits |  |  | drastic effect | no effect | no effect
